Converted amounts (≈) assume the structure as drawn. Where two headings read alike, the source gives them in different places. Each block holds one compound with its values, some of them ahead of it.
How the values were obtained:
Type in all cases: cell-based
[1] = LDH cytotoxic activity assay, C6; conditions: rat, C6 glioma cells; for cytotoxicity at 24 h, 25 μg/mL: C6, 25 μg/mL; for cytotoxicity at 24 h, 50 μg/mL: C6, 50 μg/mL; for cytotoxicity at 24 h, 75 μg/mL: C6, 75 μg/mL; for cytotoxicity at 24 h, 100 μg/mL: C6, 100 μg/mL
In short: (§1)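 Cells grown in DMEM or RPMI 1640 with 10% FBS were seeded at about 5 × 10^3 per well in triplicate. They were exposed to 25, 50, 75 and 100 μg/mL compound for 24 h at 37 °C, 5% CO2, and LDH release was measured by absorbance at 492–630 nm.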

C6 (Rat brain glioma) = experiment: cells; conditions: Rattus norvegicus; for LC50 (concentration giving 50% net cell loss relative to time zero): read-out: LC50; for GI50 / IC50 / IC (total growth inhibition): C6, MTT; for IC50: read-out: IC50; for IC (total growth inhibition): read-out: TGI
In short: (§2)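 Seed ~1 × 10^4 cells/well; final 200 μL. Add MTT in phenol-red-free RPMI 1640, 4 h. Solubilise formazan in DMSO + Sorenson's buffer, 30 min RT. Read 560/690 nm. ≥3 repeats.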

A549 = experiment: cells; conditions: Homo sapiens; for LC50 (concentration causing 50% net cell loss): A549, read-out: LC50; for GI50 / IC50 / IC (total growth inhibition): A549, MTT; for IC50: read-out: IC50; for IC (total growth inhibition): read-out: TGI
In short: as §2

Hep3B = experiment: cells; conditions: Homo sapiens; for GI50 / IC50 / IC (total growth inhibition): MTT; for IC50: read-out: IC50; for IC (total growth inhibition): read-out: TGI; for LC50 (concentration causing 50% net cell loss relative to time zero): read-out: LC50
In short: as §2

HT29 = experiment: cells; conditions: Homo sapiens; for LC50 (concentration giving 50% net cell loss relative to time zero): HT-29, read-out: LC50; for GI50 / IC50 / IC (total growth inhibition): HT-29, HT29, MTT; for IC50: read-out: IC50; for IC (total growth inhibition): read-out: TGI
In short: as §2

MCF7 = experiment: cells; conditions: Homo sapiens; for LC50 (concentration causing 50% net cell loss relative to time zero): MCF7, read-out: LC50; for GI50 / IC50 / IC (total growth inhibition): MCF7, MTT; for IC50: read-out: IC50; for IC (total growth inhibition): read-out: TGI
In short: as §2

HeLa = experiment: cells; conditions: Homo sapiens; for GI50 / IC50 / IC (total growth inhibition): MTT; for IC50: read-out: IC50; for IC (total growth inhibition): read-out: TGI; for LC50 (concentration causing 50% net cell loss): read-out: LC50
In short: as §2

[2] = LDH cytotoxic activity assay, HeLa; conditions: human, HeLa cells
In short: as §1

E. coli ATCC 25922 = experiment: Microdilution MIC assay; conditions: Escherichia coli, ATCC25922; E. coli ATCC 25922, 24 h at 35 °C
In short: (§3)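 Microwell dilution; 24 h, 35 °C; visual read; MIC = lowest conc. without turbidity.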

S. mutans ATCC 35668 = experiment: Microdilution MIC assay; conditions: Streptococcus mutans, ATCC35668, 24 h, S. mutans ATCC 35668, 24 h at 35 °C; read-out: MIC
In short: as §3

E. coli ESBL ATCC 35218 = experiment: Microdilution MIC assay; conditions: Escherichia coli, ATCC35218; E. coli ESBL ATCC 35218, 24 h at 35 °C
In short: as §3

S. aureus ATCC 25923 = experiment: Microdilution MIC assay; conditions: S. aureus ATCC 25923, 24 h at 35 °C
In short: as §3

E. faecalis ATCC 29212 = experiment: Microdilution MIC assay; conditions: Enterococcus faecalis, ATCC29212, 24 h, E. faecalis ATCC 29212, 24 h at 35 °C; read-out: MIC
In short: as §3

S. gordonii NCTC 7870 = experiment: Microdilution MIC assay; conditions: Streptococcus gordonii, NCTC7870; S. gordonii NCTC 7870, 24 h at 35 °C
In short: as §3

[3] = LDH cytotoxic activity assay, HT29; conditions: human, HT29 cells; for cytotoxicity at 24 h, 25 μg/mL: HT29, 25 μg/mL; for cytotoxicity at 24 h, 50 μg/mL: HT29, 50 μg/mL; for cytotoxicity at 24 h, 75 μg/mL: HT29, 75 μg/mL; for cytotoxicity at 24 h, 100 μg/mL: HT29, 100 μg/mL
In short: as §1

in vitro = conditions: human, LC50
In short: as §2

normal FL cells = experiment: cells; conditions: FL normal cells, MTT; for IC50: read-out: IC50; for IC (total growth inhibition): read-out: TGI
In short: as §2

[4] = Staphylococcus aureus, ATCC25923, 24 h, read-out: MIC

- GI50 (C6 (Rat brain glioma)): 8.71 µg/mL (≈ 20.5 µM)
- IC50 (C6 (Rat brain glioma)): 49 µg/mL (≈ 115 µM)
- GI50 (A549): > 500 µg/mL
- IC50 (A549): > 500 µg/mL
- GI50 (Hep3B): 6.38 µg/mL (≈ 15 µM)
- IC50 (Hep3B): > 500 µg/mL
- GI50 (HT29): 4.43 µg/mL (≈ 10.4 µM)
- IC50 (HT29): 42.5 µg/mL (≈ 100 µM)
- GI50 (MCF7): 1.7 µg/mL (≈ 4.01 µM)
- IC50 (MCF7): > 500 µg/mL
- GI50 (HeLa): 14.1 µg/mL (≈ 33.2 µM)
- IC50 (HeLa): 81.3 µg/mL (≈ 191 µM)
- MIC (E. coli ATCC 25922): 1000 µg/mL (≈ 2360 µM)
- MIC (S. mutans ATCC 35668): 250 µg/mL (≈ 589 µM)
- MIC (E. coli ESBL ATCC 35218): > 1000 µg/mL
- MIC (S. aureus ATCC 25923): 15.62 µg/mL (≈ 36.8 µM)
- MIC (S. aureus ATCC 25923; [4]): 15.6 to 125 µg/mL (≈ 36.8 to 294 µM)
- MIC (E. faecalis ATCC 29212): 1000 µg/mL (≈ 2360 µM)
- MIC (S. gordonii NCTC 7870): 250 µg/mL (≈ 589 µM)
Structure (SMILES): Cc1ccc(-c2cc(-c3cccnc3)nc(N[C@@H]3O[C@H](CO)[C@@H](O)[C@H](O)[C@H]3O)n2)cc1 [Compound 8, N-[4-(4-methylphenyl)-6-pyridin-3-ylpyrimidin-2-yl]-β-D-glucopyranosylamine]
- cytotoxicity at 24 h, 25 μg/mL [1]: 28.4%
- cytotoxicity at 24 h, 50 μg/mL [1]: 45.4%
- cytotoxicity at 24 h, 75 μg/mL [1]: 63.2%
- cytotoxicity at 24 h, 100 μg/mL [1]: 88.7%
- LC50 (concentration giving 50% net cell loss relative to time zero) (C6 (Rat brain glioma)): 225 µg/mL (≈ 530 µM)
- IC (total growth inhibition) (C6 (Rat brain glioma)): 30.7 µg/mL
- LC50 (concentration causing 50% net cell loss) (A549): > 500 µg/mL
- IC (total growth inhibition) (A549): > 500 µg/mL
- IC (total growth inhibition) (Hep3B): > 500 µg/mL
- LC50 (concentration causing 50% net cell loss relative to time zero) (Hep3B): > 500 µg/mL
- LC50 (concentration giving 50% net cell loss relative to time zero) (HT29): > 500 µg/mL
- IC (total growth inhibition) (HT29): 60 µg/mL
- LC50 (concentration causing 50% net cell loss relative to time zero) (MCF7): > 500 µg/mL
- IC (total growth inhibition) (MCF7): > 500 µg/mL
- IC (total growth inhibition) (HeLa): 50.1 µg/mL
- LC50 (concentration causing 50% net cell loss) (HeLa): 325 µg/mL (≈ 766 µM)
- cytotoxicity at 24 h, 25 μg/mL [2]: 12.5%
- cytotoxicity at 24 h, 50 μg/mL [2]: 35%
- cytotoxicity at 24 h, 75 μg/mL [2]: 42%
- cytotoxicity at 24 h, 100 μg/mL [2]: 49%
- cytotoxicity at 24 h, 25 μg/mL [3]: 20.6%
- cytotoxicity at 24 h, 50 μg/mL [3]: 34.5%
- cytotoxicity at 24 h, 75 μg/mL [3]: 75.8%
- cytotoxicity at 24 h, 100 μg/mL [3]: 95.9%
- LC50 (concentration causing 50% net cell loss) (in vitro): > 500 µg/mL
- GI50 (normal FL cells): 5.64 µg/mL (≈ 13.3 µM)
- IC50 (normal FL cells): > 500 µg/mL
- IC (total growth inhibition) (normal FL cells): > 500 µg/mL

- GI50 (C6 (Rat brain glioma)): > 500 µg/mL
- IC50 (C6 (Rat brain glioma)): > 500 µg/mL
- GI50 (A549): > 500 µg/mL
- IC50 (A549): > 500 µg/mL
- GI50 (Hep3B): 4.61 µg/mL (≈ 10.9 µM)
- IC50 (Hep3B): > 500 µg/mL
- GI50 (HT29): 4.3 µg/mL (≈ 10.1 µM)
- IC50 (HT29): > 500 µg/mL
- GI50 (MCF7): 1.89 µg/mL (≈ 4.45 µM)
- IC50 (MCF7): > 500 µg/mL
- GI50 (HeLa): > 500 µg/mL
- IC50 (HeLa): > 500 µg/mL
- MIC (E. coli ATCC 25922): > 1000 µg/mL
- MIC (S. mutans ATCC 35668): 250 µg/mL (≈ 589 µM)
- MIC (E. coli ESBL ATCC 35218): > 1000 µg/mL
- MIC (S. aureus ATCC 25923; [4]): 1000 µg/mL (≈ 2360 µM)
- MIC (E. faecalis ATCC 29212): 1000 µg/mL (≈ 2360 µM)
- MIC (S. gordonii NCTC 7870): 1000 µg/mL (≈ 2360 µM)
Structure (SMILES): Cc1ccc(-c2cc(-c3ccncc3)nc(N[C@@H]3O[C@H](CO)[C@@H](O)[C@H](O)[C@H]3O)n2)cc1 [Compound 9, N-[4-(4-methylphenyl)-6-pyridin-4-ylpyrimidin-2-yl]-β-D-glucopyranosylamine]
- cytotoxicity at 24 h, 25 μg/mL [1]: 28.4%
- cytotoxicity at 24 h, 50 μg/mL [1]: 34.1%
- cytotoxicity at 24 h, 75 μg/mL [1]: 70.2%
- cytotoxicity at 24 h, 100 μg/mL [1]: 90.6%
- LC50 (concentration giving 50% net cell loss relative to time zero) (C6 (Rat brain glioma)): > 500 µg/mL
- IC (total growth inhibition) (C6 (Rat brain glioma)): > 500 µg/mL
- LC50 (concentration causing 50% net cell loss) (A549): > 500 µg/mL
- IC (total growth inhibition) (A549): > 500 µg/mL
- IC (total growth inhibition) (Hep3B): > 500 µg/mL
- LC50 (concentration causing 50% net cell loss relative to time zero) (Hep3B): > 500 µg/mL
- LC50 (concentration giving 50% net cell loss relative to time zero) (HT29): > 500 µg/mL
- IC (total growth inhibition) (HT29): > 500 µg/mL
- LC50 (concentration causing 50% net cell loss relative to time zero) (MCF7): > 500 µg/mL
- IC (total growth inhibition) (MCF7): > 500 µg/mL
- IC (total growth inhibition) (HeLa): > 500 µg/mL
- LC50 (concentration causing 50% net cell loss) (HeLa): > 500 µg/mL
- cytotoxicity at 24 h, 25 μg/mL [2]: 10%
- cytotoxicity at 24 h, 50 μg/mL [2]: 34.3%
- cytotoxicity at 24 h, 75 μg/mL [2]: 49.6%
- cytotoxicity at 24 h, 100 μg/mL [2]: 55.9%
- cytotoxicity at 24 h, 25 μg/mL [3]: 25.7%
- cytotoxicity at 24 h, 50 μg/mL [3]: 40.9%
- cytotoxicity at 24 h, 75 μg/mL [3]: 74.7%
- cytotoxicity at 24 h, 100 μg/mL [3]: 81.8%
- LC50 (concentration causing 50% net cell loss) (in vitro): > 500 µg/mL
- GI50 (normal FL cells): 7.04 µg/mL (≈ 16.6 µM)
- IC50 (normal FL cells): > 500 µg/mL
- IC (total growth inhibition) (normal FL cells): > 500 µg/mL
